Assay results as given in ChEMBL document CHEMBL3734667 (Bioorg Med Chem, 2015).
pEC50: −log10 of the molar value.

Legend:
Influenza B virus = test: Antiviral activity against Influenza B virus; format: functional
Poliovirus 2 = test: Antiviral activity against Human poliovirus 2; format: functional; conditions: Enterovirus C
Poliovirus 1 [1] = test: Antiviral activity against Human poliovirus 1 Sabin; format: functional, organism-based; conditions: Enterovirus C
[2] = tested on: Vesicular stomatitis virus; test: Antiviral activity against VSV; format: functional, organism-based
[3] = Cytotoxicity against BHK cells assessed as cell viability after 48 to 96 hrs by MTT assay; format: cell-based, Mesocricetus auratus; conditions: hamster
Vaccinia virus = test: Antiviral activity against Vaccinia virus; format: functional, organism-based; conditions: Orthopoxvirus vaccinia
[4] = Cytotoxicity against MDBK cells assessed as cell viability after 48 to 96 hrs by MTT assay; format: cell-based, Bos taurus; conditions: cattle
[5] = Cytotoxicity against human MT4 cells assessed as cell viability after 96 hrs by MTT assay; format: cell-based
[6] = Cytotoxicity against african green monkey Vero 76 cells assessed as cell viability after 48 to 96 hrs by crystal violet staining method; format: cell-based; conditions: chlorocebus sabaeus
[7] = tested on: Bovine viral diarrhea virus 1; test: Antiviral activity against BVDV infected in MDBK cells assessed as inhibition of virus-induced cytopathogenicity after 3 to 4 days by MTT assay; format: functional, organism-based; conditions: Bovine viral diarrhea virus isolates and strains
Human alphaherpesvirus 1 = test: Antiviral activity against HSV1; format: functional, organism-based
Coxsackievirus B5 [8] = test: Ratio of NM108 EC50 to compound EC50 for human CVB5; format: functional
Poliovirus 1 [9] = test: Antiviral activity against Human poliovirus 1 Sabin infected in african green monkey Vero76 cells assessed as inhibition of virus-induced cytopathogenicity by plaque reduction assay; format: functional, organism-based; conditions: Enterovirus C, Vero 76
[10] = tested on: Human immunodeficiency virus 1; test: Antiviral activity against HIV-1 infected in MT4 cells assessed as inhibition of virus-induced cytopathogenicity after 4 days by MTT assay; format: functional, organism-based; conditions: Human immunodeficiency virus 1, MT4, 96 h
[11] = tested on: Mammalian orthoreovirus 1; test: Antiviral activity against Reo-1 virus infected in BHK-21 cells assessed as inhibition of virus-induced cytopathogenicity after 3 to 4 days by MTT assay; format: functional, cell-based; conditions: Mammalian orthoreovirus 1, BHK-21
Coxsackievirus B5 [12] = test: Ratio of NM176 EC50 to compound EC50 for human CVB5; format: functional
[13] = Selectivity index, ratio of CC50 for african green monkey Vero76 cells to EC50 for human CVB5; design: species or system Coxsackievirus B5, Vero 76
Yellow fever virus = test: Antiviral activity against YFV infected in BHK-21 cells assessed as inhibition of virus-induced cytopathogenicity after 3 to 4 days by MTT assay; format: functional, organism-based
Coxsackievirus B5 [14] = test: Antiviral activity against human CVB5 infected in african green monkey Vero76 cells assessed as inhibition of virus-induced cytopathogenicity after 3 days by plaque reduction assay; format: functional, organism-based; conditions: Enterovirus B, Vero 76, 72 h
Human orthopneumovirus = test: Antiviral activity against human RSV infected in african green monkey Vero76 cells assessed as inhibition of virus-induced cytopathogenicity after 5 days by plaque reduction assay; format: functional, organism-based; conditions: human respiratory syncytial virus, Vero 76, 120 h
[15] = molecular target: Peroxisome proliferator-activated receptor gamma (Homo sapiens, UniProt P37231); test: Agonist activity at human PPAR gamma in human HepG2 cells after 20 hrs by luciferase reporter assay; format: cell-based
[16] = molecular target: Peroxisome proliferator-activated receptor alpha (Homo sapiens, UniProt Q07869); test: Agonist activity at human PPAR alpha in human HepG2 cells after 20 hrs by luciferase reporter assay; format: cell-based
Coxsackievirus B2 = test: Antiviral activity against Human coxsackievirus B2; format: functional, organism-based; conditions: Enterovirus B
Semliki Forest virus = test: Antiviral activity against Semliki forest virus assessed as inhibition of virus growth at 170 uM; format: functional

Sequence of Peroxisome proliferator-activated receptor alpha (Q07869 whole entry): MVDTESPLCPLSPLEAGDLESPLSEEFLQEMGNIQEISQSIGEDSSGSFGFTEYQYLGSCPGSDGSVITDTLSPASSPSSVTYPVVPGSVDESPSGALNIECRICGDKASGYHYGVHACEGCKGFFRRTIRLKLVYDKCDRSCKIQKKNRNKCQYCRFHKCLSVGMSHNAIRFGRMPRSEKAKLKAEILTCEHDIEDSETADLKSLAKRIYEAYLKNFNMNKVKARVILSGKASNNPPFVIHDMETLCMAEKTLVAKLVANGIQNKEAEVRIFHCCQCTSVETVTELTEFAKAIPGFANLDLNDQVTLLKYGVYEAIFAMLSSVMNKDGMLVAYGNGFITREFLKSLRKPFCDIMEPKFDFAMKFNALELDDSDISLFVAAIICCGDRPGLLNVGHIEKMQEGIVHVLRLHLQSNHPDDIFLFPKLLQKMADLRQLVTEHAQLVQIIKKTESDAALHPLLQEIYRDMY
Sequence of Peroxisome proliferator-activated receptor gamma (P37231 whole entry): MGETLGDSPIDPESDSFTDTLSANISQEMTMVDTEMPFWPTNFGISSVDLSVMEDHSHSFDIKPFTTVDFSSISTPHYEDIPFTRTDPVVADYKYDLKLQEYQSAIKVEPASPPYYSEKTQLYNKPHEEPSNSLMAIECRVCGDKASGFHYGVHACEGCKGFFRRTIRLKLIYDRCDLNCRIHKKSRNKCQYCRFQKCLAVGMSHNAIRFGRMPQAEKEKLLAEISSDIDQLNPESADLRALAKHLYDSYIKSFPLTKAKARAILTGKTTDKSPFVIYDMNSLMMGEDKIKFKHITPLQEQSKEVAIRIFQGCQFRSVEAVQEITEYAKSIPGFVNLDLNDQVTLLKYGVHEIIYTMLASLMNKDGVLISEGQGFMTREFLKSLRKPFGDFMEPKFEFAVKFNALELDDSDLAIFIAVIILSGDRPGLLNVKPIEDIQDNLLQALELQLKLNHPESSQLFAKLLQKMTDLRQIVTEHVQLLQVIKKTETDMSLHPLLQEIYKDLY

Structure (SMILES)	pEC50 [2]	CC50 [3] [µM]	pEC50 (Vaccinia virus)	CC50 [4] [µM]	CC50 at 96 h [5] [µM]	CC50 [6] [µM]	pEC50 [7]	pEC50 (Poliovirus 1 [9])	pEC50 [10]	pEC50 (Yellow fever virus)	pEC50 (Coxsackievirus B5 [14])	pEC50 (Human orthopneumovirus)	other results
Clc1c(Cl)c(Cl)c2[nH]nnc2c1Cl	–	–	–	–	–	–	–	–	–	–	–	–	EC75 (Influenza B virus): 3 µM; EC75 (Poliovirus 2): 8.1 µM
CC(=O)Nc1ccc(-n2nnc3ccc(C(F)(F)F)cc32)cc1	–	–	–	–	–	–	–	–	–	–	–	–	pEC50 (Poliovirus 1 [1]): 4.52
Cc1ccc2nn(-c3ccc(OCCCC(C)(C)C(=O)O)cc3)nc2c1	< 4.00	17	< 4.00	24	53	15	< 4.00	< 4.00	< 4.00	< 4.00	6.82	< 4.00	pEC50 (Human alphaherpesvirus 1): < 4.00; Ratio EC50 (Coxsackievirus B5 [8]): 133; pEC50 [11]: < 4.00; Ratio EC50 (Coxsackievirus B5 [12]): 200; Ratio CC50/EC50 [13]: 100
Cc1cc(-n2nc3ccccc3n2)cc(C)c1OC(C)(C)C(=O)O	< 4.00	> 100	< 4.00	> 100	> 100	≥ 100	< 4.00	< 4.00	< 4.00	< 4.00	< 4.00	< 4.00	pEC50 [15]: 6.32; pEC50 [16]: 7.02
CCC(=O)Nc1ccc(-n2nc3cc(C)c(C)cc3n2)cc1	–	–	–	–	–	–	–	–	–	–	–	–	pEC50 (Coxsackievirus B2): 5.00
O=c1[nH]c2cc(S(=O)(=O)n3nnc4cc(Cl)ccc43)ccc2o1	–	–	–	–	–	–	–	–	–	–	–	–	inhibition at 170 µM (Semliki Forest virus): 99%
